Series [1] in a line: solubility in water or acidic aqueous solution. Format: physicochemical. The settings on record: at 25° C.
For series [2] the following is noted: relative to sugar; cited from earlier work.

Where a SMILES comes first, the peptide text is derived from it. The star is where a group is joined. Cbz = O=C(OCc1ccccc1)*

The compound `COC(=O)[C@H](Cc1ccccc1)NC(=O)[C@H](CC(=O)O)NC(=O)OCc1ccccc1` (Cbz-Asp-Phe-OMe) gave a solubility in water in series [1] of 0.028 g/100 g water. Further, the “solubility in diluted hydrochloric acid” value in series [1] (diluted hydrochloric acid (10^-2 M)) is reported as 0.017 g/100 g diluted hydrochloric acid (10^-2 M).

As to `COC(=O)[C@H](Cc1ccccc1)NC(=O)[C@@H](N)CC(=O)O` [α-L-Aspartyl-L-phenylalanine methyl ester] (H-Asp-Phe-OMe), in series [2], the sweetness result is given as “about 200 times of that of sugar”.

The record behind these values is patent US4256836A, “Addition compound of dipeptide derivative and amino acid derivative” (Toyo Soda Manufacturing Co. Ltd., priority 1977, dated 1981).
